Consider two molecules from article PMC4560162, “Discovery of small molecule inhibitors of xyloglucan endotransglucosylase (XET) activity by high-throughput screening” (Phytochemistry, 2015).

For data set [1], the system named is Zea cell-suspension cultures. The data set can be described thus: Cell expansion (SCV, PCV) in Zea cell-suspension culture. Conditions: Zea, 4 d incubation. The class given is cell-based, Zea mays. The procedure:
Cell-suspension cultures of “Paul’s Scarlet” rose [a complex hybrid; genus Rosa; isolated in October 1957 from sections of young stem material; [Nickell and Tulecke, 1959]) and maize (Zea mays L., Black Mexican Sweetcorn, donated by Dr. I. Moore, Department of Botany, University of Edinburgh) were grown under constant dim illumination (10 μmol m^−2 s^−1) on an orbital shaker at 25 °C. Rose cells were maintained as described by [Chormova et al. (2014)] and maize cells as described by [Kerr and Fry (2003)].
(§1) Eight xenobiotics that inhibited XET activity were selected for biological testing. Mini-cultures [2 ml, 5% (v/v) SCV; transferred from a standard culture 7 d after sub-culturing] were incubated in 12-well tissue culture microplates with the lids closed loosely. Xenobiotics were added as concentrated stocks in DMSO (final DMSO concentration 2%), and incubation was continued aseptically under standard conditions of temperature, lighting and shaking. After 4 d, 1 kBq of [^14C]proline was added per mini-culture. A small volume of medium (50 μl) was sampled 2 and 4 h after [^14C]proline addition and assayed for remaining extracellular ^14C. The culture was brought up to 10 ml with water and the settled and packed cell volumes (SCV, PCV) were then measured ([Fry and Street, 1980]). Most of the culture medium was then removed and the cells were finally killed by addition of 0.5 ml of 6% SDS. After 0.5 h at 100 °C, a 100-μl aliquot of the centrifuged SDS-extract was dried onto Whatman No. 3 paper, which was then washed in 75% ethanol supplemented with 0.5% acetic acid, thus removing free [^14C]proline and its low-Mr metabolites if any; radioactivity remaining on the paper ([^14C]protein) was then assayed.

For data set [2], the system named is Zea cell-suspension cultures. Kind of data set: Membrane function ([14C]proline uptake) in Zea culture. It is filed as cell-based, Zea mays. Conditions: 4 d after xenobiotic, higher tested concentration.
A further data set concerns parsley XET activity. Kind of data set: Radiochemical XET assay (soluble xyloglucan + [3H]XXXGol). It is filed as biochemical. Conditions: most xenobiotics at 200 μg/ml (≈200–800 μM). The procedure: The parsley enzyme concentration was held constant, and the xenobiotics were tested at 200, 160, 120, 80, 40, 20, 10 and 0 μg/ml (concentrations in the final reaction mixture). Other details were as above.
The riboflavin-free controls received the same DMSO concentration.

Data set [3] has as its system nine other cell-wall enzyme activities. Kind of data set: Dot-blot assays for nine additional wall enzyme activities. It is filed as biochemical, parsley and lucerne (alfalfa). Conditions: xenobiotic 200 mg/l. The procedure:
Radiolabelled oligosaccharide ([1-^3H]Gal12-ol or [1-^3H]Xyl6-ol; 1 kBq; containing a trace of Orange G) was dried into each well of a 96-well plate. […] The mixture was incubated for 24 h (for Gal12-ol) or 48 h (for Xyl6-ol), then the 5-μl reaction mixture was dried onto each position on a piece of plain Whatman No. 1 paper in 96-well format. Visual inspection of the Orange G verified that the samples had been correctly applied to the paper. […] Thus, in this assay, radioactive spots reveal inhibition of the enzyme.

Data set [4] has as its system Rosa cell-suspension cultures. Kind of data set: Membrane function ([14C]proline uptake) in Rosa culture. It is filed as cell-based, Rosa ("Paul's Scarlet" rose). Conditions: 4 d after xenobiotic, higher tested concentration. The procedure:
Before testing the effects of XET-inhibitors on cell expansion, we defined their non-toxic concentrations. The eight XET-inhibiting xenobiotics mentioned in §2.7 were tested for cytotoxicity in cultured Rosa and Zea cells, by simple tests of the compounds’ ability to inhibit membrane and ribosome function based on [^14C]proline uptake and incorporation. In xenobiotic-free control 4-d-old Rosa cultures, 93.3% and 94.3% of the supplied [^14C]proline was absorbed from the medium within 2 and 4 h respectively, indicating healthy membrane function. In xenobiotic-free 4-d-old Zea cultures, the corresponding figures were 93.9% and 92.5%. By 4 h, 5.5% of the total [^14C]proline supplied had been incorporated into protein by Rosa and 9.3% by Zea cells, indicating healthy ribosome function. Against these control rates, we recorded any inhibition of membrane and ribosome function by the xenobiotics (Fig. 8). Each xenobiotic was tested at two concentrations (¼ and ^1/20 of the lowest non-tolerated concentration), which had been selected on the basis of preliminary experiments with a dilution series of the xenobiotic.
as §1, with “A small volume of medium (50 μl) was sampled 2 and 4 h after [^14C]proline addition and assayed for remaining extracellular ^14C.” left out, “Most of the culture medium was then removed and the cells were finally killed by addition of 0.5 ml of 6% SDS.” left out

The target of data set [5] is cyclic-AMP-dependent protein kinase, PKA. On the set-up: method as in Losiewicz et al., 1994. Conditions: ref Losiewicz et al., 1994; cited from earlier work.

pIC50: −log10 of the molar value.

Regarding `CCOc1ccc(Nc2ccc(/C(=C3C=C/C(=[N+](/CC)Cc4cccc(S(=O)(=O)[O-])c4)C=C/3C)c3ccc(N(CC)Cc4cccc(S(=O)(=O)O)c4)cc3C)cc2)cc1` [brilliant blue G], in data set [1], the “concentration inhibiting growth (PCV) without membrane impairment” value turned out to be 100 µM. In addition, the membrane function entry in data set [2] and in data set [4] was “impaired” throughout. The “effect on XET activity, first radiochemical re-screen of EDI hits” value with parsley XET activity is on record as “inhibitory”. In addition, the “number of the nine other wall enzyme activities inhibited” value in data set [3] was “three”.
As usually defined, the pIC50 is −log10 of the IC50, conventionally taken in molar units. With `CN1CC[C@H](c2c(O)cc(O)c3c(=O)cc(-c4ccccc4Cl)oc23)[C@H](O)C1` [flavopiridol], the pIC50 in data set [5] was 3.84.
